The numbers were not newly measured in patent publication US10399946B2, “Solid forms of an S-Nitrosoglutathione reductase inhibitor” (Alpine Immune Sciences, Inc., priority 2015, dated 2019), which cites them from elsewhere.

The conditions of data set [1]: described in WO2012/048181, US 62/061,557, 62/093,712, 62/138,792, 62/209,724, WO 2016/057811.
Data set [2] addresses S-nitrosoglutathione reductase (GSNOR) (Homo sapiens, UniProt P11766). As to conditions: variety of assays and therapeutic models.

Chain of S-nitrosoglutathione reductase (GSNOR) (P11766 whole entry): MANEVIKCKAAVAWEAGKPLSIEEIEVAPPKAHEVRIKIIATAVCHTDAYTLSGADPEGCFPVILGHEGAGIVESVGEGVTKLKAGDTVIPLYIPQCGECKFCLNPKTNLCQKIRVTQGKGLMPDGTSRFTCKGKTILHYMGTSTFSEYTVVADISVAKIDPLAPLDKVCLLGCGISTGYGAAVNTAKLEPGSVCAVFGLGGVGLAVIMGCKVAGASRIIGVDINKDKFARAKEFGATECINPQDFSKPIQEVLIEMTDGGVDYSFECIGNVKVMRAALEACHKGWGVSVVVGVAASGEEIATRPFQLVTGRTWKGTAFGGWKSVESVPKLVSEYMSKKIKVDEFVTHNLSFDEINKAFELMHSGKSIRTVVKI

Take `O=C(O)c1ccc(-c2ccc3cc(O)ccc3n2)c(Cl)c1` [Compound 1, 3-chloro-4-(6-hydroxyquinolin-2-yl)benzoic acid]: the “efficacy in asthma, COPD, cystic fibrosis, and IBD models” value in data set [1] was “demonstrates efficacy”. Moreover, the “inhibition of S-nitrosoglutathione reductase (GSNOR)” value in data set [2] is “selective and reversible inhibition”.
